Test results reported in publication PMC10216731 (2023).

What was measured:
[1] = system: aptamer for AMP (Apt) (DNA, aptamer) GCGGGCGGTTGTATAGCGG; test: fluorescence recovery by release of TPE-Am; settings: 99% PBS (PBS:DMSO), pH 7.4, 25 °C, aptamer 500 nM
[2] = system: aptamer for AMP (Apt) (DNA, aptamer) GCGGGCGGTTGTATAGCGG; test: fluorescence quenching of TPE-Am, lg[(F0-F)/F] against lg[Q] plot; settings: Na+, K+ from 10 mM PBS (Na2HPO4, KH2PO4, NaCl, KCl); individual cation concentrations not given; 305 K; PBS:DMSO 99% PBS; TPE-Am aggregated; also measured at 287 and 318 K; apparent
[3] = TPE-Am displacement, highest tested 100 nM

Compound | binding [1, 3] | also measured
CC1(C)S[C@@H]2[C@H](NC(=O)[C@H](N)c3ccccc3)C(=O)N2[C@H]1C(=O)O |  | binding ([1]; TPE-Am 1 μM displaced, 10 nM AMP): yes
CC[C@H]1OC(=O)[C@H](C)[C@@H](O[C@H]2C[C@@](C)(OC)[C@@H](O)[C@H](C)O2)[C@H](C)[C@@H](O[C@@H]2O[C@H](C)C[C@H](N(C)C)[C@H]2O)[C@](C)(O)C[C@@H](C)/C(=N\OCOCCOC)[C@H](C)[C@@H](O)[C@]1(C)O | no | 
CN(C)[C@@H]1C(=O)C(C(N)=O)=C(O)[C@@]2(O)C(=O)C3=C(O)c4c(O)cccc4[C@@](C)(O)[C@H]3C[C@@H]12 | no | 
Nc1ccc(C(=C(c2ccccc2)c2ccccc2)c2ccccc2)cc1 |  | Kb [2]: 626000 L/mol

Further lines, with some results ahead:

binding [1, 3] | Compound | also measured
no | O=C(N[C@H](CO)[C@H](O)c1ccc([N+](=O)[O-])cc1)C(Cl)Cl | 
no | O=[N+]([O-])N=C1NCCN1Cc1ccc(Cl)nc1 | 
